Test results as given in ChEMBL document CHEMBL3817834, “Scaffold morphing leading to evolution of 2,4-diaminoquinolines and aminopyrazolopyrimidines as inhibitors of the ATP synthesis pathway” (Medchemcomm, 2016).
Values after ≈ are worked out from the molar mass of the structure shown.

What was measured:
Assay type in all cases: functional
[1] = tested on: Mycobacterium tuberculosis; experiment: Antimycobacterial activity against rifampicin resistant Mycobacterium tuberculosis isolate 19000 by turbidometric method
[2] = tested on: Mycobacterium tuberculosis; experiment: Antimycobacterial activity against ethambutol resistant Mycobacterium tuberculosis isolate 17003 by turbidometric method
[3] = tested on: Mycobacterium tuberculosis; experiment: Antimycobacterial activity against bedaquiline resistant Mycobacterium tuberculosis harboring I66M mutant by turbidometric method
[4] = tested on: Mycobacterium tuberculosis; experiment: Antimycobacterial activity against ofloxacin resistant Mycobacterium tuberculosis isolate 12119 by turbidometric method
[5] = tested on: Mycobacterium tuberculosis; experiment: Antimycobacterial activity against bedaquiline resistant Mycobacterium tuberculosis harboring A63P mutant by turbidometric method
[6] = tested on: Mycobacterium tuberculosis; experiment: Antimycobacterial activity against streptomycin resistant Mycobacterium tuberculosis isolate 35820 by turbidometric method
[7] = tested on: Mycobacterium tuberculosis; experiment: Antimycobacterial activity against isoniazid resistant Mycobacterium tuberculosis isolate 35822 by turbidometric method

## CN(C)CCOc1ncc(Nc2cc(-c3ccccc3)nc3cc(-c4ccc(F)cc4)nn23)cc1F
[1]
  MIC80: 6.3 µM (≈ 3.07 µg/mL)
[2]
  MIC80: 6.3 µM (≈ 3.07 µg/mL)
[3]
  MIC=>80: 6.3 µM (≈ 3.07 µg/mL)
[4]
  MIC80: 12.5 µM (≈ 6.08 µg/mL)
[5]
  MIC=>80: 12.5 µM (≈ 6.08 µg/mL)
[6]
  MIC80: 25 µM (≈ 12.2 µg/mL)
[7]
  MIC80: 12.5 µM (≈ 6.08 µg/mL)

## CN(C)CCOc1ncc(Nc2cc(-c3ccccc3)nc3cc(-c4ccc(F)cc4)[nH]c23)cc1F
[1]
  MIC80: 3.1 µM (≈ 1.51 µg/mL)
[2]
  MIC80: 6.3 µM (≈ 3.06 µg/mL)
[3]
  MIC=>80: 3.1 µM (≈ 1.51 µg/mL)
[4]
  MIC80: 25 µM (≈ 12.1 µg/mL)
[5]
  MIC=>80: 3.1 µM (≈ 1.51 µg/mL)
[6]
  MIC80: 25 µM (≈ 12.1 µg/mL)
[7]
  MIC80: 3.1 µM (≈ 1.51 µg/mL)

## COc1cc2nc(N3CCC(c4ccccc4Cl)C3)cc(Nc3cnc(OCCN(C)C)c(F)c3)c2cc1OC (stereo not given)
[1]
  MIC80: 3.1 µM (≈ 1.75 µg/mL)
[2]
  MIC80: 6.3 µM (≈ 3.57 µg/mL)
[3]
  MIC=>80: 6.3 µM (≈ 3.57 µg/mL)
[4]
  MIC80: 12.5 µM (≈ 7.08 µg/mL)
[5]
  MIC=>80: 3.1 µM (≈ 1.75 µg/mL)
[6]
  MIC80: 12.5 µM (≈ 7.08 µg/mL)
[7]
  MIC80: 6.3 µM (≈ 3.57 µg/mL)

## CN(C)CCOc1ncc(Nc2cc(N3CCC(c4ccccc4Cl)C3)nc3cc(F)c(F)cc23)cc1F (stereo not given)
[1]
  MIC80: 3.1 µM (≈ 1.68 µg/mL)
[2]
  MIC80: 6.3 µM (≈ 3.41 µg/mL)
[3]
  MIC=>80: 3.1 µM (≈ 1.68 µg/mL)
[4]
  MIC80: 25 µM (≈ 13.6 µg/mL)
[5]
  MIC=>80: 3.1 µM (≈ 1.68 µg/mL)
[6]
  MIC80: 25 µM (≈ 13.6 µg/mL)
[7]
  MIC80: 3.1 µM (≈ 1.68 µg/mL)

## COc1nc2ccc(Br)cc2cc1[C@@H](c1ccccc1)[C@@](O)(CCN(C)C)c1cccc2ccccc12 [BEDAQUILINE]
[1]
  MIC80: < 2 µM
[2]
  MIC80: < 2 µM
[3]
  MIC=>80: 10 µM (≈ 5.56 µg/mL)
[4]
  MIC80: < 2 µM
[5]
  MIC=>80: >10 µM
[6]
  MIC80: < 2 µM
[7]
  MIC80: < 2 µM

## CC[C@@H](CO)NCCN[C@@H](CC)CO [ETHAMBUTOL]
[1]
  MIC80: 9.8 µM (≈ 2 µg/mL)
[2]
  MIC80: > 20 µM
[3]
  MIC=>80: 9.8 µM (≈ 2 µg/mL)
[4]
  MIC80: 4.9 µM (≈ 1 µg/mL)
[5]
  MIC=>80: 9.8 µM (≈ 2 µg/mL)
[6]
  MIC80: 9.8 µM (≈ 2 µg/mL)
[7]
  MIC80: 9.8 µM (≈ 2 µg/mL)

## NNC(=O)c1ccncc1 [ISONIAZID]
[1]
  MIC80: 0.2 µM (≈ 0.0274 µg/mL)
[2]
  MIC80: 0.2 µM (≈ 0.0274 µg/mL)
[3]
  MIC=>80: 0.2 µM (≈ 0.0274 µg/mL)
[4]
  MIC80: 0.2 µM (≈ 0.0274 µg/mL)
[5]
  MIC=>80: 0.2 µM (≈ 0.0274 µg/mL)
[6]
  MIC80: 0.2 µM (≈ 0.0274 µg/mL)
[7]
  MIC80: > 15 µM

## CC1COc2c(N3CCN(C)CC3)c(F)cc3c(=O)c(C(=O)O)cn1c23 (stereo not given) [OFLOXACIN]
[1]
  MIC80: 0.7 µM (≈ 0.253 µg/mL)
[2]
  MIC80: 0.3 µM (≈ 0.108 µg/mL)
[3]
  MIC=>80: 0.7 µM (≈ 0.253 µg/mL)
[4]
  MIC80: > 5.6 µM
[5]
  MIC=>80: 0.7 µM (≈ 0.253 µg/mL)
[6]
  MIC80: 0.7 µM (≈ 0.253 µg/mL)
[7]
  MIC80: 0.7 µM (≈ 0.253 µg/mL)

## CO[C@H]1/C=C/O[C@@]2(C)Oc3c(C)c(O)c4c(O)c(c(/C=N/N5CCN(C)CC5)c(O)c4c3C2=O)NC(=O)/C(C)=C\C=C\[C@H](C)[C@H](O)[C@@H](C)[C@@H](O)[C@@H](C)[C@H](OC(C)=O)[C@@H]1C [RIFAMPIN]
[1]
  MIC80: > 1.2 µM
[2]
  MIC80: 0.04 µM (≈ 0.0329 µg/mL)
[3]
  MIC=>80: 0.04 µM (≈ 0.0329 µg/mL)
[4]
  MIC80: 0.04 µM (≈ 0.0329 µg/mL)
[5]
  MIC=>80: 0.04 µM (≈ 0.0329 µg/mL)
[6]
  MIC80: 0.04 µM (≈ 0.0329 µg/mL)
[7]
  MIC80: 0.04 µM (≈ 0.0329 µg/mL)

## CN[C@@H]1[C@H](O[C@H]2[C@H](O[C@H]3[C@H](O)[C@@H](O)[C@H](N=C(N)N)[C@@H](O)[C@@H]3N=C(N)N)O[C@@H](C)[C@]2(O)C=O)O[C@@H](CO)[C@H](O)[C@H]1O [STREPTOMYCIN]
[1]
  MIC80: 0.3 µM (≈ 0.174 µg/mL)
[2]
  MIC80: 0.3 µM (≈ 0.174 µg/mL)
[3]
  MIC=>80: 0.3 µM (≈ 0.174 µg/mL)
[4]
  MIC80: 0.3 µM (≈ 0.174 µg/mL)
[5]
  MIC=>80: 0.3 µM (≈ 0.174 µg/mL)
[6]
  MIC80: > 11 µM
[7]
  MIC80: 0.3 µM (≈ 0.174 µg/mL)
